Reference: patent US10273239B2, “Spiro-lactam NMDA receptor modulators and uses thereof” (Aptinyx Inc., priority 2013, dated 2019)

Key:
[1] = target: T1, NMDA receptor (rat cortical membranes) (Rattus norvegicus, UniProt P35439); experiment: [3H] MK-801 binding assay (potentiation of [3H]MK-801 binding)
T1 construct: well washed rat cortical membranes (200 μg); from tissue; host or cells: rat cerebral cortex membranes
Protocol: Assays were conducted as described in Moskal et al. (Moskal, J. R., Kuo, A. G., Weiss, C., Wood, P. L., O'Connor Hanson, A., Kelso, S., Harris, R. B., Disterhoft, J. F., 2005. GLYX-13: a monoclonal antibody-derived peptide that acts as an N-methyl-D-aspartate receptor modulator. Neuropharmacology. 49, 1077-87) The potentiation of [^3H]MK-801 binding (5 nM; 22.5 Ci/mmol) to well washed rat cortical membranes (200 μg) was measured under non-equilibrium conditions (15 min @ 25° C.) in the presence of increasing concentrations of test compounds and 50 μM glutamate. Zero levels were determined in the absence of any glycine ligand and in the presence of 30 μM 5,7 DCKA. Maximal stimulation was measured in the presence of 1 mM glycine, and 50 μM glutamate was present in all samples. The facilitation of [^3H]MK-801 binding by tests compounds was calculated by using a 3 parameter log agonist vs. response equation (Graph pad Prism, USA) and potency (EC50, expressed in pM) and maximal activity (% maximal stimulation) were calculated for the test compound.

LTP = experiment: Unified Activity Data: LTP; conditions: LTP Concentration 1 uM
[2] = Unified Activity Data: Porsolt; format: in vivo; conditions: 3 mg/kg, IV, 1 hour post dose

| SMILES | EC50 [1] [nM] | Unified Activity Data: LTP Augmentation (Percent) (LTP) [%] | Unified Activity Data: Porsolt Floating Time Inhibition (Percent) [2] [%] |
| --- | --- | --- | --- |
| C[C@@H](O)[C@H](NC(=O)OC(C)(C)C)C(=O)N1CCCC12CNC2=O (stereo in doubt) [Compound 4S-FNL-2, tert-butyl (3-hydroxy-1-oxo-1-(1-oxo-2,5-diazaspiro [3.4]octan-5-yl)butan-2-yl)carbamate] | 0.0553 | – | – |
| C[C@@H](O)[C@H](N)C(=O)N1CCCC12CNC2=O (stereo partly drawn) [Compound 4S-FNL-1, 5-((2S,3R)-2-amino-3-hydroxybutanoyl)-2,5-diazaspiro [3.4] octan-1-one] | – | 80 | 70 |
